Patent US8450357B2, “Compositions comprising an aryl pyrazole and/or a formamidine, methods and uses thereof” (Merial Limited, priority 2008, dated 2013)

Experiment: Stability of formulations comprising Compound 1, accelerated @ 50° C., HPLC
Type: physicochemical
Settings: solvents or combinations of solvents in Table 1
Description: Compound 1 (3-cyano-1-(2-chloro-6-fluoro-4-trifluoromethylphenyl)-4-dichlorofluoromethylsulfinyl-5-methyl-1H-pyrazole) was dissolved in a solvent or a combination of two or more solvents at 10% w/w. The formulations thus prepared were analyzed, using HPLC, for the content of compound 1 as the initial timepoint reading. Then all formulations were placed at 50° C., and the content of compound 1 in each of them was analyzed at the timepoints of two, four, six and, in some cases, 10 weeks. […] Thus formulations of Compound 1 in the solvents/carriers identified below are shown to be sufficiently stable.

With `Cc1c([S+]([O-])C(F)(Cl)Cl)c(C#N)nn1-c1c(F)cc(C(F)(F)F)cc1Cl` (stereo not shown) [Compound 1, 3-cyano-1-(2-chloro-6-fluoro-4-trifluoromethylphenyl)-4-dichlorofluoromethylsulfinyl-5-methyl-1H-pyrazole] the “stability of Compound 1” value was “good stability”.
